Reference: US11065335B2, “Methods of treating leukemia using compositions containing bis(benzylthio)octanoic acid and ion pairs thereof” (Rafael Pharmaceuticals, Inc., priority 2007, dated 2021)
Structures can show the parent of a compound that is named as a salt.

Columns and labels:
[1] = tested on: A2780 human ovarian cancer cells; experiment: CellTiter Glo cell viability assay, A2780 cells; settings: Homo sapiens, A2780, 24 h
Procedure: (§1) Two types of human tumor cells were used in this investigation: BXPC3 human pancreatic cancer cells and A2780 human ovarian cancer cells. The BXPC3 cells were originally obtained from American Type Cell Culture (ATCC). The ovarian tumor cells were gifts from Roswell Park Cancer Institute, Buffalo, N.Y. All tumor cells were maintained at 37° C. in a humidified 5% CO2 atmosphere in T75 tissue culture flasks containing 20 mL of Roswell Park Memorial Institute (RPMI) 1640 containing 2 mM L-glutamine, 10% fetal bovine serum (FBS) and 1% penicillin and streptomycin (100 IU/mL penicillin and 100 μg/mL streptomycin). The tumor cells were split at a ratio of 1:5 every 4-5 days by trypsinization and resuspended in fresh medium in a new flask. Cells were harvested for experiments at 70-90% confluency.
(§2) CPI-613 (i.e., 6,8-bis(benzylthio)octanoic acid) stock solutions at concentrations of 8, 4, 2, 1.5 and 0.5 mM were prepared in the appropriate vehicles. The molar ratio of vehicle to CPI-613 was maintained at 8:1. The corresponding vehicle concentrations were 64, 32, 16, 12, and 4 mM respectively. A sixty-four mM aliquot of vehicle was dissolved in 10 mL of water. Next, 8 mM of CPI-613 was added and the mixture was stirred until a clear solution was obtained. […] A 5 μL aliquot of this stock solution was added to 95 μL of tumor cells in media. Upon dilution in the wells, the corresponding drug concentrations were 400, 200, 100, 75 and 25 μM respectively.
(§3) For the sodium salt and potassium salt form of CPI-613, 1 equivalent of CPI-613 solid was dissolved in water. Sixty-two mg of CPI-613 (0.00016 mol) was added to 10 mL of water, then 165 μL of 1M NaOH or KOH was added and stirred until a clear solution was obtained. This gave a 16 mM solution. The resulting 16 mM solution was then serially diluted, thereby providing 8 mM and 4 mM solutions of the CPI-613 salt form. For the ammonium salt, vehicle to drug ratio was maintained at 8:1 and the formulation was prepared using procedures analogous to those described above in Section 2 relating to preparation of CPI-613 formulations in different vehicles.
(§4) CPI-613 formulated in 1M triethanolamine (TEA) was used as an internal control during formulation screening. To prepare a 16 mM of working stock of CPI-613, 50 mg/mL of CPI-613 (128.66 mM of CPI-613 in 1M TEA) was diluted in complete cell culture media containing 10% FBS. That is, 310 μL of a 128.66 mM solution of CPI-613 in 1M TEA was added to 2.19 mL of cell culture media. This stock was further diluted serially in complete media to give 8 mM, 4 mM 2 mM, 1.5 mM and 0.5 mM working solutions. On the day of testing, 5 μL of this working solution was added to 95 μL of cell culture media (20 fold dilution) resulting final concentrations of 400, 200, 100, 75 and 25 μM CPI-613, respectively. The ratio of CPI-613 to TEA was maintained at 1:8 ratio at all times.
(§5) The cell viability of CPI-613 formulations formulated at a ratio of 1:8, CPI-613 to vehicle, was assessed by exposing the A2780 ovarian tumor cells and BXPC3 human pancreatic cancer cells to the following CPI-613 concentrations: 400 μM (3200 μM vehicle), 200 μM (1600 μM vehicle), 100 μM (800 μM vehicle), 75 μM (600 μM vehicle) and 25 μM (200 μM vehicle) The impact of corresponding vehicles at 3200, 1600 and 800 μM concentrations was also tested in tumor cells for cell viability. […] CPI-613 in TEA was used as an internal control. The tumor cells were treated for 24 hrs with the test article in serum-containing medium. After 24 hrs of treatment the number of viable tumor cells was determined.
(§6) The number of cells targeted for the study was 4×10^3 per well in 100 μL of medium. The actual number of cells were counted and seeded in the wells of a 96 well-plate. The cells were incubated for ˜24 hrs before addition of CPI-613.
(§7) For each cell line the concentrations of test articles or vehicles specified above was used.

[2] = tested on: BXPC3 human pancreatic cancer cells; experiment: CellTiter Glo cell viability assay, BXPC3 cells; settings: Homo sapiens, BXPC-3, 24 h
Procedure: as §1, §2, §3, §4, §5, §6, §7

[3] = tested on: A2780 ovarian tumor cells and BXPC3 human pancreatic cancer cells; experiment: CellTiter Glo cell viability assay, text statements not split by cell line; format: cell-based; settings: for cell kill: 24 hrs; for impact of vehicle on cancer cell killing: vehicle alone 3200 μM
Procedure: Two types of human tumor cells were used in this investigation: BXPC3 human pancreatic cancer cells and A2780 human ovarian cancer cells. The BXPC3 cells were originally obtained from American Type Cell Culture (ATCC). […] The tumor cells were split at a ratio of 1:5 every 4-5 days by trypsinization and resuspended in fresh medium in a new flask. Cells were harvested for experiments at 70-90% confluency.
The corresponding vehicle concentrations were 64, 32, 16, 12, and 4 mM respectively. A sixty-four mM aliquot of vehicle was dissolved in 10 mL of water. […] A 5 μL aliquot of this stock solution was added to 95 μL of tumor cells in media. Upon dilution in the wells, the corresponding drug concentrations were 400, 200, 100, 75 and 25 μM respectively.
This gave a 16 mM solution.
This stock was further diluted serially in complete media to give 8 mM, 4 mM 2 mM, 1.5 mM and 0.5 mM working solutions.
The tumor cells were treated for 24 hrs with the test article in serum-containing medium. After 24 hrs of treatment the number of viable tumor cells was determined.
The number of cells targeted for the study was 4×10^3 per well in 100 μL of medium. The actual number of cells were counted and seeded in the wells of a 96 well-plate.
For each cell line the concentrations of test articles or vehicles specified above was used. Five μL of the working solution for each test article or vehicle was added to 95 μL of cell culture media. The corresponding final concentrations of test articles are 20 fold more diluted than the working solutions. […] Additionally, a set of wells was treated with cell culture medium in the absence of cells to obtain a value for background luminescence.
The number of viable cells was determined by using the CellTiter Glo® Assay. Specifically, reagents were mixed and allowed to come to room temperature according to instructions from Promega, Inc. (Madison, Wis.). Cell plates were removed from the cell culture incubator and left on the bench for 30 minutes until they reach room temperature. A one-hundred μL aliquot CellTiter Glo® reagent was added to each well with a 12-channel Eppendorf pipettor. The cells were lysed by shaking the plate for 2 minutes in a shaker. Then, the cells were kept at room temperature for 10 minutes to stabilize the luminescent signal. The luminescence was measured using the FLUOstar OPTIMA plate reader (BMG Labtech, Inc., Durham, N.C.).
Data from luminescence readings was copied onto EXCEL spreadsheets, and cell growth relative to untreated cells was calculated, using the following equation: […]
The calculated values were imported into SigmaPlot, v11. A Four-Parameter Logistic Curve of the “mean relative cell growth as a function of the concentrations of the test articles” was generated. The EC50 values were determined from the curves. The R-squared value provides an indication of the degree of fitness of data to the curve. For each experiment, the percentage of viable cells was be expressed as the mean of 9 replicates. The average was calculated by taking the mean±standard deviation of the three experiments.

[4] = in vitro; settings: human, A2780 Cell Viability; for viability: 24 hrs
Procedure: as §1, §2, §3, §4, §5, §6, §7

[5] = in vitro; settings: human, BXPC3 Cell Viability; for viability: 24 hrs
Procedure: as §1, §2, §3, §4, §5, §6, §7

[6] = Stability of the drug product by visual observation and HPLC; format: physicochemical; settings: 50 mg/mL in 1M triethanolamine
Procedure: Bis-benzyl lipoate was provided in a concentrated form at a concentration of 50 mg/mL dissolved in 1M triethanolamine (TEA). The stability of the drug product was assessed by visual observation and by high-performance liquid chromatography (HPLC) assessment, performed at the beginning and the end of the study. […] The concentrated bis-benzyl lipoate solution was diluted to an appropriate concentration with 5% dextrose (D5W) to formulate 0.1, 1 and 10 mg/kg doses of bis-benzyl lipoate.

[7] = tested on: Human H-460 Non Small Cell Lung Carcinoma (NSCLC) xenograft; experiment: Anti-tumor activity in mice with Human H-460 NSCLC xenograft; format: in vivo
Procedure: A study to assess the dose and dosing schedule effects on the anti-tumor activity of bis-benzyl lipoate was undertaken. More specifically, the pharmaceutical formulations of bis-benzyl lipoate of Comparative Example 1, i.e., bis-benzyl lipoate dissolved in 1:1 Tween 80:ethanol and diluted with saline, were tested in mice with Human H-460 Non Small Cell Lung Carcinoma (NSCLC) xenograft. The pharmaceutical formulations were administered intraperitoneally (IP), given 1× or 3× weekly. Administration of bis-benzyl lipoate began when the average tumor size of the mice was ˜300 mm^3. There were originally eight treatment groups, with seven mice in each group, investigating three doses (0.1, 1 and 10 mg/kg) and two dosing schedules, as shown in Table 1 below.
Specifically, both subgroups of each treatment group were treated with the same dose of bis-benzyl lipoate as in the original protocol; however, one of the two subgroups was treated with a pharmaceutical formulation of bis-benzyl lipoate according to Comparative Example 1, i.e., bis-benzyl lipoate dissolved in 1:1 Tween 80:ethanol and diluted with saline, and the other subgroup was treated with a pharmaceutical formulation of bis-benzyl lipoate according to Example 1, i.e., dissolved in TEA and diluted with D5W. […]

With `O=C(O)CCCCC(CCSCc1ccccc1)SCc1ccccc1` (stereo not drawn) [CPI-613 ammonium salt] the viability at 25 µM ([1]; read-out: A2780 Cell Viability (ammonium salt formulations), CPI-613 25 μM, ratio 1:8) was > 95%, the viability at 75 µM ([1]; read-out: A2780 Cell Viability (ammonium salt formulations), CPI-613 75 μM, ratio 1:8) was > 95% and the viability at 100 µM ([1]; read-out: A2780 Cell Viability (ammonium salt formulations), CPI-613 100 μM, ratio 1:8) was 70 to 95%. The viability at 200 µM ([1]; read-out: A2780 Cell Viability (ammonium salt formulations), CPI-613 200 μM, ratio 1:8) was 10 to 30%, the viability at 400 µM ([1]; read-out: A2780 Cell Viability (ammonium salt formulations), CPI-613 400 μM, ratio 1:8) was < 10% and the viability at 25 µM ([2]; read-out: BXPC3 Cell Viability (ammonium salt formulations), CPI-613 25 μM, ratio 1:8) was > 95%. The viability at 75 µM ([2]; read-out: BXPC3 Cell Viability (ammonium salt formulations), CPI-613 75 μM, ratio 1:8) was > 95%, the viability at 100 µM ([2]; read-out: BXPC3 Cell Viability (ammonium salt formulations), CPI-613 100 μM, ratio 1:8) was > 95% and the viability at 200 µM ([2]; read-out: BXPC3 Cell Viability (ammonium salt formulations), CPI-613 200 μM, ratio 1:8) was 30 to 70%. For the same compound, the viability at 400 µM ([2]; read-out: BXPC3 Cell Viability (ammonium salt formulations), CPI-613 400 μM, ratio 1:8) was < 10%, the cell kill ([3]; ammonium salt formulation at 200 μM) was 70-80% and the cell kill ([3]; ammonium salt formulation at 400 μM) was 100%.

With `CC(O)CN(CC(C)O)CC(C)O` (stereo not drawn) [Triisopropanolamine] the viability ([4]; vehicle alone 800 μM) was > 95%, the viability ([4]; vehicle alone 1600 μM) was > 95% and the viability ([4]; vehicle alone 3200 μM) was 70 to 85%. The viability ([5]; vehicle alone 800 μM) was > 95%, the viability ([5]; vehicle alone 1600 μM) was > 95% and the viability ([5]; vehicle alone 3200 μM) was 70 to 85%. For the same compound, the “impact of vehicle on cancer cell killing” value [3] was “appear to have come cell killing effects”.

In the case of `NC(CO)(CO)CO` [Tris base], the viability at 24 h, 800 μM ([4]; A2780 ovarian cancer cells, vehicle alone 800 μM) was > 95%, the viability at 24 h, 1600 μM ([4]; A2780 ovarian cancer cells, vehicle alone 1600 μM) was > 95% and the viability at 24 h, 3200 μM ([4]; A2780 ovarian cancer cells, vehicle alone 3200 μM) was > 95%. For the same compound, the viability at 24 h, 800 μM ([5]; BXPC3 pancreatic cancer cells, vehicle alone 800 μM) was > 95%, the viability at 24 h, 1600 μM ([5]; BXPC3 pancreatic cancer cells, vehicle alone 1600 μM) was > 95% and the viability at 24 h, 3200 μM ([5]; BXPC3 pancreatic cancer cells, vehicle alone 3200 μM) was > 95%. The “impact of vehicle on cancer cell killing” value [3] was “did not show a significant impact on cancer cell killing”.

For `O=C(O)CCCCC(CCSCc1ccccc1)SCc1ccccc1` (stereo not drawn) [bis-benzyl lipoate, 6,8-bis(benzylthio)octanoic acid], the “physical appearance (stability of the drug product, visual observation)” value ([6]; beginning and end of the study) was “did not change”, the “purity by HPLC (stability of the drug product)” value ([6]; both at the beginning and the end of the study) was > 99% and the “anti-tumor effects compared to vehicle treatment” value ([7]; Comparative Example 1 formulation (Tween 80/ethanol/saline), IP, 0.1, 1, 10 mg/kg, 1x or 3x weekly) was “did not induce any anti-tumor effects”. The “H-460 tumor size versus 10 mg/kg in Comparative Example 1 formulation” value ([7]; Example 1 formulation (TEA/D5W), 0.1-10 mg/kg) was “may be smaller”.
